# What was measured:
# [1] = target: T1, DOCK1 (DHR-2 domain) (Homo sapiens, UniProt Q14185); assay: In vitro GEF assay: Rac activation by DOCK1 DHR-2 domain; format: biochemical, mice and humans
# T1 construct: polypeptide fragments corresponding to the DHR-2 domain of DOCK1 or DOCK2 from mice and humans; Histidine-SUMO (N); made in house; host or cells: E. coli Arctic express (DE3)
# T1 sequence (Q14185 1207-1617 limits assumed): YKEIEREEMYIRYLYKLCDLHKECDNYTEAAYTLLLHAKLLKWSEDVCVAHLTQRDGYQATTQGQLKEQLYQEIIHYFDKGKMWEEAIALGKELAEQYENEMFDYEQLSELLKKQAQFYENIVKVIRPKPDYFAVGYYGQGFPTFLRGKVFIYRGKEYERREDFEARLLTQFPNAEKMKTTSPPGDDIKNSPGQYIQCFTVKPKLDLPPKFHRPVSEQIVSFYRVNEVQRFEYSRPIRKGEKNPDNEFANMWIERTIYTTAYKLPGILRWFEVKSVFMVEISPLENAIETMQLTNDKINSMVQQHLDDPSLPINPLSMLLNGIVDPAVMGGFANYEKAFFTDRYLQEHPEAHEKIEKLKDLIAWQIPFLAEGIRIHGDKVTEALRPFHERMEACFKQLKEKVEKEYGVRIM
# Method: DOCK1 and DOCK2, i.e., DOCK-A subfamily members, both activate Rac by catalyzing the GTP-GDP exchange reaction for Rac via their DHR-2 domains. Therefore, in this Pharmacological Test, the inhibitory effect of the compounds of the present invention on Rac activation by DOCK1 or DOCK2 was assessed in an in vitro GEF assay by using polypeptide fragments corresponding to the DHR-2 domain of DOCK1 or DOCK2 from mice and humans. The in vitro GEF assay was performed using a labeled GTP (Bodipy-FL-GTP, Invitrogen), which has a property of increasing the fluorescence intensity when bound to Rac.
# The polypeptide fragments corresponding to the DHR-2 domain of DOCK1 or DOCK2 were prepared by expression in E. coli Arctic express (DE3) cells as N-terminal. Histidine-SUMO tag-fused recombinant proteins, followed by purification by affinity column chromatography on nickel-NTA columns.
# Rac was prepared by expression in E. coli BL21 (DE3) cells as an N-terminal GST tag-fused recombinant protein, followed by purification by affinity column chromatography on glutathione-Sepharose columns.
# Each of the polypeptide fragments corresponding to the DHR-2 domain of DOCK1 or DOCK2, and a predetermined concentration of each test compound (the compounds of the present invention: 33 types of compounds; and comparative compound: TBOPP) dissolved in DMSO were incubated in a reaction solution A (pH 7.0), which contained 20 mM of MES-NaOH, 150 mM of NaCl, 10 mM of MgCl2, and 20 μM of GDP for 20 minutes at room temperature while being shielded from light to thus prepare GEF pretreated products. The final concentration of DMSO was adjusted to 1 mass % in all of the test samples. For a control test, a GEF pretreated product (control) was prepared by incubation in the same manner using DMSO with no test compounds, instead of the DMSO used above in which each test compound was dissolved.
# Separately, Rac was added to the reaction solution A (pH 7.0) to a concentration of 15 μM, and was allowed to stand on for 30 min to form a GDP-Rac complex. Bodipy-FL-GTP was added to a concentration of 3.6 μM to 100 μL of the reaction solution A that contained the thus-prepared GDP-Rac complex, and equilibrated at 30° C. for 2 minutes. After equilibration, 50 μL of the GEF pretreated product prepared as described above was added and reacted at 30° C.
# Changes in fluorescence intensity of Bodipy-FL-GTP in the reaction solutions were monitored using an EnSpire spectrofluorometer (Perkin Elmer) (excitation wavelength: 488 nm, fluorescence wavelength: 514 nm). The measured values were corrected so that the fluorescence intensity at the beginning of the reaction (0 sec) was 0. Then, an approximate curve (hyperbola) was obtained by plotting the calculated correction values on the y-axis and the time (t) on the x-axis using GraphPad Prism5 (GraphPad software), and the slope at t=0 to 10 seconds was defined as the initial velocity of the guanine nucleotide exchange reaction. The IC50 value was calculated taking the initial reaction velocity of the control, to which only a solvent (DMSO) was added, as 100%.
# Based on the obtained results, columns A and B of FIG. 1, FIG. 2, FIG. 3-1, and FIG. 3-2 show the results evaluating the inhibitory effect on Rac activation by DOCK1 (DHR-2 domain) (IC50 value), and DOCK1-selective inhibitory effect (DOCK1/DOCK2 selectivity) of each test compound. The inhibitory effect on Rac activation by DOCK1 (DHR-2 domain) (IC50 value) was determined from the reaction inhibition curve plotted using values of Rac activation by the DOCK1 DHR-2 domain in the presence of various concentrations of the test compounds, taking the values of the control as 100%. […]
# [2] = test system: mouse lung carcinoma cell line (3LL); assay: Tumor growth of subcutaneously transplanted mouse lung carcinoma cells; format: in vivo, C57BL/6 mice; conditions: 3LL s.c. in mice, 0.25 mg/300 μL, day 26 to day 29
# Method: The mouse lung carcinoma cell line (3LL) was suspended in 200 μL of PBS(−), and transplanted (5×10^5 cells per mouse) into the dorsal subcutaneous region of C57BL/6 mice (6 weeks old). To a 6:1:1 mixture of PBS/Cremophor EL/ethanol, RT-22 as a representative of the compounds of the present invention was added to a concentration of 0.25 mg/300 μL, and the resulting mixture was loaded into an SMP-300 micro infusion pump (iPRECIO), which was subcutaneously implanted on the previous day of the transplantation, to perform continuous intravenous administration (n=5 mice). The control group was only administered with an equivalent volume of a solvent (a 6:1:1 mixture of PBS/Cremophor EL/ethanol) (n=6 mice). The transverse and longitudinal diameters of the tumor mass were measured over time for a period of 4 weeks from the start of administration, and the tumor volume (V) was calculated according to the formula: V=π/6x√((transverse diameter×longitudinal diameter)^3).
# [3] = test system: mouse lung carcinoma cell line (3LL cells); assay: Cell invasion inhibition assay (Matrigel invasion chamber); format: cell-based; conditions: 22 hours, DMSO control as 100% invasion
# Method: In this Pharmacological Test, the inhibitory effect of each test compound on cell invasion response was evaluated using a mouse lung carcinoma cell line (3LL cells), a mouse pancreatic cancer cell line (PANC02 cells), and a human breast cancer cell line (MDA-MB-157 cells). Of these, the mouse lung carcinoma cell line (3LL) is a cancer cell line with mutant Ras (K-Ras (G12C)), and the human breast cancer cell line (MDA-MB-157) is a cancer cell line with mutant Rac (Rac1 (P29S)). The experiments were performed in BD BioCoat Matrigel invasion chambers (BD Biosciences).
# Specifically, an upper chamber with a Matrigel-coated membrane insert (8 μm pores) at the bottom was equilibrated with DMEM (serum-free medium) for 120 minutes. Thereafter, 300 μL of a suspension of a cancer cell line in DMEM (serum-free) was placed in the upper chamber while 500 μL of DMEM (with 10 mass % FCS) was placed in the lower chamber. Each test compound dissolved in DMSO at a predetermined concentration was added to both the culture media in the upper and lower chambers. As a control, DMSO alone was added to both the culture media in the upper and lower chambers. In all of the experiments, the final DMSO concentration in the culture media was adjusted to 0.2 mass %.
# The resulting products were cultured under 5% CO2 at 37° C. for 22 hours (3LL and PANC02 cells) or 48 hours (MDA-MB-157 cells). Then, the upper chamber was removed, and the culture medium was removed. Thereafter, non-invading cells remaining in the upper chamber were removed using a cotton swab, and the cells remaining outside the bottom of the upper chamber (cells that had invaded into the Matrigel, and passed through the membrane insert) were stained with Diff-Quick (Sysmex). After staining, the membrane inserts with Matrigel were cut out using a scalpel to prepare slides, and the number of invading cells was counted under an optical microscope.
# The results were evaluated based on percent cell invasion (%: Invasion) and percent inhibition (%: Inhibition). The percent cell invasion was obtained by converting the number of invading cells in the presence of each test compound into a percentage, taking the number of invading cells in the control test, in which DMSO was added alone, as 100%; and the percent inhibition was obtained by deducting the percent cell invasion from 100.
compound,measurement,setting,value
"O=C(Cn1cc(S(=O)(=O)N2CCCC2)ccc1=O)c1ccc(-c2cccc(C(F)(F)F)c2)cc1 [TBOPP, 1-(2-oxo-2-(3′-(trifluoromethyl)-[1,1′-biphenyl]-4-yl)ethyl)-5-(pyrrolidin-1-ylsulfonyl)pyridin-2(1H)-one, reference compound]",DOCK1-selective inhibitory effect (DOCK1/DOCK2 selectivity),[1]; IC50 for DOCK2 divided by IC50 for DOCK1,2.6
same,IC50,"[1]; in vitro GEF assay, Bodipy-FL-GTP, DMSO control as 100%, read-out: inhibitory effect (IC50 value) on Rac activation by DOCK1 (DHR-2 domain)",8.4 µM
same,"tumor size reduced by, compared to the control group",[2],21-24%
same,percent cell invasion inhibition,[3],95%
